Assay: Penetration of calcein through pig skin in Franz cell test device
Assay type: in vitro ADME
Details: calcein solution 1 mmol, 0.523 mg/ml, receiving liquid PBS, 37° C., FIG. 9
Description: An injection device according to the present invention was constructed as described above. Testing was performed using calcein on pig skin, using the apparatus in FIG. 8. The graph of FIG. 9 presents the results of testing in three different situations: without enhancers, with hollow microneedles and using the method of the present invention, using microneedles with ultrasonic enhancement. With reference to FIG. 8, test device 10 comprises injection device 20 which has been applied to skin sample 30. Pig skin sample 30 communicates with a receiving liquid in receiving chamber 40. Arm 50 is provided to chamber 40 for inserting or withdrawing the receiving liquid. Chamber 40 is located in Franz cell 60, which comprises a water bath 65 and inlet and outlet ports 70 and 75 respectively for maintaining the receiving liquid at a constant temperature. Sample chamber 80 is provided for holding a test sample. […]
In order to conduct the test using test device 10, calcein solution (1 mmol, 0.523 mg/ml) was placed in chamber 80 so as to supply the solution to device 20, and a receiving liquid (PBS: phosphate buffered saline) was loaded into chamber 40. […] The concentration of calcein in the receiving liquid was then monitored by withdrawing aliquots from arm 50 and analysing them. […]

transport of calcein across the skin sample (microneedles and ultrasound (20 kHz, 0.5 Wcm^−2), compared with microneedles alone): enhanced
transport of calcein across the skin sample (microneedles, no ultrasound, compared with no microneedles (without enhancers)): improvement
Compound: O=C(O)CN(CC(=O)O)Cc1cc2c(cc1O)Oc1cc(O)c(CN(CC(=O)O)CC(=O)O)cc1C21OC(=O)c2ccccc21 [calcein]

Reference: US20090326441A1, “Ultrasonic Enhanced Microneedles” (AGENCY FOR SCIENCE ,TECHNOLOGY AND RESEARCH, priority 2006, published 2009)
